The values below come from PMC10722238, “Development and validation of PAMPA-BBB QSAR model to predict brain penetration potential of novel drug candidates” (Frontiers in Pharmacology, 2023).

Molecules are shown by their SMILES.

The nature of the data set: Stirring Double-Sink PAMPA-BBB permeability assay. The class given is in vitro ADME, porcine. The following applies: for PAMPA-BBB permeability category of control compound: control compounds used in each plate, category in words; for Papp at 60 min, 0.05 mM: pig, PAMPA, control compounds run in each plate for over 50 plates, 0.5% DMSO, phosphate buffer, room temperature, UV readout, read-out: PAMPA-BBB permeability Pe (mean ± S.D). The source says: The stirring Double-SinkTM PAMPA-BBB method patented by Pion Inc. (Billerica, MA) was employed to determine the permeability of compounds ([[…], 2013]). The PAMPA lipid membrane, which consists of porcine brain lipid extract dissolved in alkane (Pion Inc.), was optimized to predict BBB passive permeability. This membrane was immobilized on a PVDF matrix of a 96 well “acceptor” filter plate placed on top of a 96 well “donor” plate containing coated magnetic stirrers. The test articles, stocked in 10 mM DMSO solutions, were diluted to 0.05 mM in aqueous phosphate buffer and the concentration of DMSO was 0.5% in the final solution. During the 60-min permeation study period, conducted at room temperature, the test samples in the donor compartment were stirred using the Gutbox technology (Pion Inc.) to reduce the aqueous boundary layer to 60 μm. The test article concentrations in the “donor” and “acceptor” compartments were measured using a UV plate reader (Nano Quant, Infinite® 200 PRO, Tecan Inc., Männedorf, Switzerland). Permeability (Pe) calculations were performed using Pion Inc. Software and were expressed in units of 10^-6 cm/s.

As to `Cn1c(=O)c2c(ncn2C)n(C)c1=O` [Caffeine, caffeine], the “PAMPA-BBB permeability category of control compound” value is listed as “low permeability” and the Papp at 60 min, 0.05 mM was less than 1 ×10⁻⁶ cm/s.
With `NC(=O)N1c2ccccc2C=Cc2ccccc21` [Carbamazepine, carbamazepine], the “PAMPA-BBB permeability category of control compound” value is on record as “moderate permeability” and the Papp at 60 min, 0.05 mM is 21 ± 2.3 ×10⁻⁶ cm/s.
The corresponding values for `CC(=O)[C@H]1CC[C@H]2[C@@H]3CCC4=CC(=O)CC[C@]4(C)[C@H]3CC[C@]12C` [Progesterone, progesterone] are “high permeability” and 87 ± 10.1 ×10⁻⁶ cm/s.
